Source: US7595398B2, “N-(5-membered aromatic ring)-amido anti-viral compounds” (SmithKline Beecham Corporation, priority 2005, dated 2009)

System: HCV replicon I389luc-ubi-neo/NS3-3′/ET in ET (Huh-lucubineo-ET) cells; screening for HCV RNA dependent RNA polymerase
Assay: Replicon Assay (luciferase, ET cell line Huh-lucubineo-ET)
Assay type: cell-based
Settings: Hepatitis C virus; inhibition of replication relative to no compound control; test concentration of 10 μM according to the fitted equation; luciferase 48-72 hours
Experimental: A cell line, ET (Huh-lucubineo-ET) was used for screening of compounds of the present invention for HCV RNA dependent RNA polymerase. The ET cell line was stably transfected with RNA transcripts harboring a I389luc-ubi-neo/NS3-3′/ET; replicon with firefly luciferase-ubiquitin-neomycin phosphotransferase fusion protein and EMCV-IRES driven NS3-5B polyprotein containing the cell culture adaptive mutations (E1202G; T12801; K1846T) (Krieger at al, 2001 and unpublished). The ET cells were grown in DMEM, supplemented with 10% fetal calf serum, 2 mM Glutamine, Penicillin (100 IU/mL)/Streptomycin (100 μg/mL), 1× nonessential amino acids, and 250 μg/mL G418 (“Geneticin”). They were all available through Life Technologies (Bethesda, Md.). The cells were plated at 0.5-1.0×10^4 cells/well in the 96 well plates and incubated for 24 hrs before adding nucleoside analogs. […] Luciferase activity were measured 48-72 hours later by adding a lysis buffer and the substrate (Catalog number Glo-lysis buffer E2661 and Bright-Glo luciferase system E2620 Promega, Madison, Wis.). Cells should not be too confluent during the assay. Percent inhibition of replication was plotted relative to no compound control. Under the same condition, cytotoxicity of the compounds was determined using cell proliferation reagent, WST-1(Roche, Germany). The compounds showing antiviral activities, but no significant cytotoxicities were chosen to determine IC50 and TC50. For these determinations, 10 concentrations of each compound were used. Concentrations for test compounds typically span a range of 500 fold. IC50 and TC50 values were calculated by fitting % inhibition at each concentration (I) to the following equation: % inhibition=100%/[1+10^(log IC50−log (I))*b] where b is Hill's coefficient.

| SMILES | inhibition at 10 µM |
| --- | --- |
| O=C(Nc1ccccn1)c1ccc(-c2csc(NC(=O)[C@@H]3CCCN3C(=O)OCc3ccccc3)n2)cc1 [Compound 5372, 2-{4-[4-(Pyridin-2-ylcarbamoyl)-phenyl]-thiazol-2-ylcarbamoyl}-pyrrolidine-1-carboxylic acid benzyl ester] | 99.9% |
| O=C(NCCCO)c1ccc(-c2csc(NC(=O)[C@@H]3CCCN3C(=O)OCc3ccccc3)n2)cc1 [Compound 5317, 2-{4-[4-(3-Hydroxy-propylcarbamoyl)-phenyl]-thiazol-2-ylcarbamoyl}-pyrrolidine-1-carboxylic acid benzyl ester] | 100% |
| O=C(NC1CC1)c1ccc(-c2csc(NC(=O)[C@@H]3CCCN3C(=O)COc3ccccc3)n2)cc1 (stereo in doubt) [Compound 5331, 1-(2-Phenoxy-acetyl)-pyrrolidine-2-carboxylic acid [4-(4-cyclopropylcarbamoyl-phenyl)-thiazol-2-yl]-amide] | 43% |
| CC(C)(C)OC(=O)N1CCC(NC(=O)c2ccc(-c3csc(NC(=O)[C@@H]4CCCN4C(=O)OCc4ccccc4)n3)cc2)CC1 [Compound 5336, 4-(4-{2-[(1-Benzyloxycarbonyl-pyrrolidine-2-carbonyl)-amino]-thiazol-4-yl}-benzoylamino)-piperidine-1-carboxylic acid tert-butyl ester] | 96.3% |
| O=C(Nc1nc(-c2ccc3c(c2)OCO3)cs1)[C@@H]1CCCN1C(=O)OCc1ccccc1 [Compound 5002, 2-(4-Benzo[1,3]dioxol-5-yl-thiazol-2-ylcarbamoyl)-pyrrolidine-1-carboxylic acid benzyl ester] | 94.7% |
| O=C(Nc1nc(-c2ccc(F)c(F)c2)cs1)[C@@H]1CCCN1C(=O)OCc1ccccc1 [Compound 5056, 2-[4-(3,4-Difluoro-phenyl)-thiazol-2-ylcarbamoyl]-pyrrolidine-1-carboxylic acid benzyl ester] | 99.3% |
| Cc1ccc(Cc2cnc(NC(=O)[C@@H]3CCCN3C(=O)OCc3ccccc3)s2)cc1 [Compound 5040, 2-[5-(4-Methyl-benzyl)-thiazol-2-ylcarbamoyl]-pyrrolidine-1-carboxylic acid benzyl ester] | 22.5% |
| O=C(Nc1nc(-c2ccc(NCC3CCCC3)cc2)cs1)[C@@H]1CCCN1C(=O)OCc1ccccc1 [Compound 5380, 2-{4-[4-(Cyclopentylmethyl-amino)-phenyl]-thiazol-2-ylcarbamoyl}-pyrrolidine-1-carboxylic acid benzyl ester] | 98.3% |
| O=C(Nc1cccc(-c2csc(NC(=O)C3CCCN3C(=O)OCc3ccccc3)n2)c1)c1ccccc1 (centres unmarked) [Compound 5019, 2-[4-(3-Benzoylamino-phenyl)-thiazol-2-ylcarbamoyl]-pyrrolidine-1-carboxylic acid benzyl ester] | 100% |
| CCc1ccc(-c2csc(NC(=O)[C@@H]3CCCN3C(=O)OCc3ccccc3)n2)cc1 [Compound 5094, 2-[4-(4-Ethyl-phenyl)-thiazol-2-ylcarbamoyl]-pyrrolidine-1-carboxylic acid benzyl ester] | 3.49% |
| O=C(NC1CCCC1)c1ccc(-c2csc(NC(=O)[C@@H]3CCCN3C(=O)OCc3ccccc3)n2)cc1 [Compound 5100, 2-[4-(4-Cyclopentylcarbamoyl-phenyl)-thiazol-2-ylcarbamoyl]-pyrrolidine-1-carboxylic acid benzyl ester] | 99.1% |
| O=C(NC1CC1)c1ccc(-c2csc(NC(=O)[C@@H]3CCCN3CCc3ccccc3)n2)cc1 [Compound 5316, 1-Phenethyl-pyrrolidine-2-carboxylic acid [4-(4-cyclopropylcarbamoyl-phenyl)-thiazol-2-yl]-amide] | 3.19% |
| O=C(Nc1nc(-c2ccccc2Cl)cs1)[C@@H]1CCCN1C(=O)OCc1ccccc1 [Compound 5103, 2-[4-(2-Chloro-phenyl)-thiazol-2-ylcarbamoyl]-pyrrolidine-1-carboxylic acid benzyl ester] | 99.3% |
| O=C(Nc1nc(-c2cccc(NCC3CCCC3)c2)cs1)[C@@H]1CCCN1C(=O)OCc1ccccc1 [Compound 5319, 2-{4-[3-(Cyclopentylmethyl-amino)-phenyl]-thiazol-2-ylcarbamoyl}-pyrrolidine-1-carboxylic acid benzyl ester] | 67.4% |
| O=C(NC1CCCC1)c1cccc(-c2cnc(NC(=O)[C@@H]3CCCN3C(=O)OCc3ccccc3)s2)c1 [Compound 5363, 2-[5-(3-Cyclopentylcarbamoyl-phenyl)-thiazol-2-ylcarbamoyl]-pyrrolidine-1-carboxylic acid benzyl ester] | 1.64% |
| O=C(NC1CC1)c1ccc(-c2csc(NC(=O)C3CCCN3C(=O)CCc3ccccc3)n2)cc1 (centres unmarked) [Compound 5358, 1-(3-Phenyl-propionyl)-pyrrolidine-2-carboxylic acid [4-(4-cyclopropylcarbamoyl-phenyl)-thiazol-2-yl]-amide] | 84.8% |
| O=C(Nc1nc(-c2ccc(F)cc2F)cs1)[C@@H]1CCCN1C(=O)OCc1ccccc1 [Compound 5023, 2-[4-(2,4-Difluoro-phenyl)-thiazol-2-ylcarbamoyl]-pyrrolidine-1-carboxylic acid benzyl ester] | 76.5% |
| N#Cc1ccc(-c2csc(NC(=O)[C@@H]3CCCN3C(=O)OCc3ccccc3)n2)cc1 [Compound 5305, 2-[4-(4-Cyanophenyl)-thiazol-2-ylcarbamoyl]-pyrrolidine-1-carboxylic acid benzyl ester] | 76.3% |
| CNc1ccc(-c2csc(NC(=O)C3CCCN3C(=O)OCc3ccccc3)n2)cc1 (centres unmarked) [Compound 5049, 2-[4-(4-Methylamino-phenyl)-thiazol-2-ylcarbamoyl]-pyrrolidine-1-carboxylic acid benzyl ester] | 95.6% |
| O=C(NC1CC1)c1ccc(-c2csc(NC(=O)[C@@H]3CCCN3C(=O)OCc3ccccc3)n2)o1 [Compound 5351, 2-[4-(5-Cyclopropylcarbamoyl-furan-2-yl)-thiazol-2-ylcarbamoyl]-pyrrolidine-1-carboxylic acid benzyl ester] | 22.3% |
| O=C(Nc1nc(-c2c(F)c(F)c(F)c(F)c2-c2ccccc2)cs1)[C@@H]1CCCN1C(=O)OCc1ccccc1 [Compound 5014, 2-[4-(3,4,5,6-Tetrafluoro-biphenyl-2-yl)-thiazol-2-ylcarbamoyl]-pyrrolidine-1-carboxylic acid benzyl ester] | 66.6% |
| COC(=O)c1sc(NC(=O)[C@@H]2CCCN2C(=O)OCc2ccccc2)nc1-c1ccc(C(=O)NC2CC2)cc1 [Compound 5362, 2-[(1-Benzyloxycarbonyl-pyrrolidine-2-carbonyl)-amino]-4-(4-cyclopropylcarbamoyl-phenyl)-thiazole-5-carboxylic acid methyl ester] | 98.7% |
| O=C(Nc1nc(-c2ccc3c(c2)Cc2ccccc2-3)cs1)[C@@H]1CCCN1C(=O)OCc1ccccc1 [Compound 5058, 2-[4-(9H-Fluoren-2-yl)-thiazol-2-ylcarbamoyl]-pyrrolidine-1-carboxylic acid benzyl ester] | 18.6% |
| O=C(NCc1ccc(-c2csc(NC(=O)[C@@H]3CCCN3C(=O)OCc3ccccc3)n2)cc1)C1CC1 [Compound 5369, 2-(4-{4-[(Cyclopropanecarbonyl-amino)-methyl]-phenyl}-thiazol-2-ylcarbamoyl)-pyrrolidine-1-carboxylic acid benzyl ester] | 98.3% |
| NC(=O)Nc1ccc(-c2csc(NC(=O)[C@@H]3CCCN3C(=O)OCc3ccccc3)n2)cc1 [Compound 5314, 2-[4-(4-Ureido-phenyl)-thiazol-2-ylcarbamoyl]-pyrrolidine-1-carboxylic acid benzyl ester] | 100% |
| CC(C)(CN1CCOCC1)NC(=O)c1ccc(-c2csc(NC(=O)[C@@H]3CCCN3C(=O)OCc3ccccc3)n2)cc1 [Compound 5306, 2-{4-[4-(1,1-Dimethyl-2-morpholin-4-yl-ethylcarbamoyl)-phenyl]-thiazol-2-ylcarbamoyl}-pyrrolidine-1-carboxylic acid benzyl ester] | 100% |
| O=C(Nc1nc(-c2ccc(C(=O)N3CCOCC3)cc2)cs1)C1CCCN1C(=O)OCc1ccccc1 (centres unmarked) [Compound 5364, 2-{4-[4-(Morpholine-4-carbonyl)-phenyl]-thiazol-2-ylcarbamoyl}-pyrrolidine-1-carboxylic acid benzyl ester] | 4.49% |
| O=C(Nc1nc(-c2ccc(Cl)cc2Cl)cs1)[C@@H]1CCCN1C(=O)OCc1ccccc1 [Compound 5101, 2-[4-(2,4-Dichloro-phenyl)-thiazol-2-ylcarbamoyl]-pyrrolidine-1-carboxylic acid benzyl ester] | 69.2% |
| Cc1cc(-c2csc(NC(=O)[C@@H]3CCCN3C(=O)OCc3ccccc3)n2)cc(C)c1C [Compound 5062, 2-[4-(3,4,5-Trimethyl-phenyl)-thiazol-2-ylcarbamoyl]-pyrrolidine-1-carboxylic acid benzyl ester] | 94.7% |
